# Test results from article PMC9012943, “Oral remdesivir derivative VV116 is a potent inhibitor of respiratory syncytial virus with efficacy in mouse model” (Signal Transduction and Targeted Therapy, 2022).
# “And” between values parts separate entries of the source, which are not always exact repeats. Identical values can stand only once. Like-named read-outs stand apart in the source and are kept apart here.
# Legend:
# RSV A2 [1] = assay: Inhibition of RSV A2 replication in A549 cells (qRT-PCR); type: cell-based, respiratory syncytial virus; details: for EC50: human respiratory syncytial virus, RSV A2 MOI 2, 48 h
# Description: A549, HEp-2 or NHBE cells were plated into 48 well-plate and incubated overnight. Upon reaching 80% cell confluence, cells were infected RSV A2 (at an MOI of 2 in A549, MOI of 0.5 in HEp-2, and MOI of 1 in NHBE cells) for 2 h after cells were incubated for 1 h with varying concentrations of drugs. Then, the virus-drug mixture was removed, and cells were cultured with drug-containing medium. At 48 h post inoculation, total RNAs were extracted from cells and then in reverse transcription using PrimeScript RT reagent Kit with gDNA Eraser (TaKaRa). For determining the viral copies, absolute quantitative RT-PCR was performed with TB Green® Premix Ex Taq^TM II (TaKaRa). RSV A2 F fragment was quantified with primers 5’-[…]-3’; and 5’-[…]-3’
# [2] = Cellular toxicity in A549 cells (WST-8 cell viability); type: cell-based; details: human
# Description: Cell viability was performed in 96-well plate with triplicate for each concentration. All drugs were diluted 2 times with 9 gradients starting at 500 micromores in maintenance medium (DMEM containing 2% FBS). After 48 h incubation, the supernatant was removed, and 10 μL WST-8 (2-(2-methoxy-4-(phenyl)-3-(4-(phenyl) to 5 (2, 4-sulpho benzene) -2 h-tetrazolium monosodium salt) in maintenance medium was added in medium. Plates were measured at 450 nm wavelength using spectrophotometer (BioTek) after 2 h incubation, and cell viability was calculated.
# [3] = Pharmacokinetic study in SD rats; type: in vivo
# Description: SD rats (N = 3 for each group, male) were fasted for 12 h before dosing (only for the oral administration). The test compound (VV116 or VV116-H) was administered intravenously at 5.0 mg/kg dissolved in DMSO-enthanol-PEG300-saline (5/5/40/50, v/v/v/v), and administered orally at 30 mg/kg dissolved in 40%PEG400+10% Kolliphor® HS15+50% ultrapure water. At 5 min, 0.25, 0.5, 1.0, 2.0, 4.0, 6.0, 8.0, and 24 h post-dosing, blood samples were collected from the jugular vein into EDTA-K2 tubes. […] samples were obtained following general procedures and the concentrations of analytes in the supernatant were analyzed by LC-MS/MS.
# RSV A2 [4] = type: in vivo, Balb/c mice; details: ribavirin 100 mg/kg b.i.d., day 4 p.i.
# Description: Considering the potent effect of VV116 inhibiting RSV in vitro, we further tested the effect of […] against RSV in a mouse model. Ribavirin, the off-label used drug to treat RSV in the clinic, was employed as a control. To this end, 6–8-week Balb/c mice were intranasally infected with 4 × 10^6 FFU of RSV per mouse (day 0), and were then treated with VV116 (25, 50, and 100 mg/kg) or ribavirin (50 and 100 mg/kg) bis in die (b.i.d.) (supplementary Fig S3). […] Viral RNA level in the lung was measured with quantitative RT-PCR and virion load was measured with immunoplaque assay (Fig. 1e). […] We also evaluated the lung pathology of the challenged mice by histochemical analysis.
# Specific pathogen-free (SPF) female Balb/c mice at the age of 6–8 weeks were purchased from Beijing Vital River Laboratory Animal Technology Co., Ltd. The mice were housed in an SPF environment under standard conditions. All mouse experiments were approved by the ethics committee of the Wuhan Institute of Virology, Chinese Academy of Science (permit number WIVA25202113). Thirty mice (5 animals per group, 6 groups) were anaesthetized with isoflurane and challenged with 4×10^6 FFU of RSV A2 intranasally (i.n.). The mice were given drugs by intragastric administration. Treatments were commenced in 1 h post infection and continued for 4 days. […] The weight of the mice was recorded daily. […]
# RSV = tested on: RSV; parameters: method as in PMID 8413475; details: prophylactic treatment; cited from earlier work
# [5] = A549 cells, 48 h, read-out: CC50
# [6] = X1 (VV116) or GS-441524 (VV116-H), i.v. 5.0 mg/kg
# [7] = X1 (VV116) or GS-441524 (VV116-H), p.o. 30.0 mg/kg
compound,measurement,setting,value
Nc1ccn([C@@H]2O[C@@](CO)(CCl)[C@@H](O)[C@H]2F)c(=O)n1 [ALS-8112],SI,RSV A2 [1],> 1785
same,EC50,RSV A2 [1],0.28 ± 0.07 µM
same,CC50 at 48 h,[2]; [5],> 500 µM
"N#C[C@@]1(c2ccc3c(N)ncnn23)O[C@H](CO)[C@@H](O)[C@H]1O [GS-441524, 1′-CN-4-aza-7,9-dideazaadenosine C-nucleoside]",SI,RSV A2 [1],> 608
same,EC50,RSV A2 [1],0.82 ± 0.46 µM
same,CC50 at 48 h,[2]; [5],> 500 µM
"CCC(CC)COC(=O)[C@H](C)N[P@](=O)(OC[C@H]1O[C@@](C#N)(c2ccc3c(N)ncnn23)[C@H](O)[C@@H]1O)Oc1ccccc1 [RDV, Remdesivir]",SI,RSV A2 [1],11300
same,EC50,RSV A2 [1],0.02 ± 0.003 µM
same,CC50 at 48 h,[2],226 ± 11.5 µM
CC(C)C(=O)OC[C@H]1O[C@@](C#N)(c2ccc3c(N)ncnn23)[C@H](OC(=O)C(C)C)[C@@H]1OC(=O)C(C)C [VV116-H],"Concentration of X1 or GS-441524 in plasma, Mean","[3]; IV 5.0 mg/kg, 5 min",1997 ng/mL
same,"Concentration of X1 or GS-441524 in plasma, individual rats","[3]; IV 5.0 mg/kg, 5 min, 5 mg/kg",1940 ng/mL and 1960 ng/mL and 2090 ng/mL
same,"Concentration of X1 or GS-441524 in plasma, Mean","[3]; IV 5.0 mg/kg, 0.25 h",1557 ng/mL
same,"Concentration of X1 or GS-441524 in plasma, individual rats","[3]; IV 5.0 mg/kg, 0.25 h, 5 mg/kg",1560 ng/mL and 1620 ng/mL and 1490 ng/mL
same,"Concentration of X1 or GS-441524 in plasma, Mean","[3]; IV 5.0 mg/kg, 0.5 h",983 ng/mL
same,"Concentration of X1 or GS-441524 in plasma, individual rats","[3]; IV 5.0 mg/kg, 0.5 h, 5 mg/kg",1040 ng/mL and 921 ng/mL and 988 ng/mL
same,"Concentration of X1 or GS-441524 in plasma, Mean","[3]; IV 5.0 mg/kg, 1.0 h",502 ng/mL
same,"Concentration of X1 or GS-441524 in plasma, individual rats","[3]; IV 5.0 mg/kg, 1.0 h, 5 mg/kg",425 ng/mL and 522 ng/mL and 558 ng/mL
same,"Concentration of X1 or GS-441524 in plasma, Mean","[3]; IV 5.0 mg/kg, 2.0 h",158 ng/mL
same,"Concentration of X1 or GS-441524 in plasma, individual rats","[3]; IV 5.0 mg/kg, 2.0 h, 5 mg/kg",150 ng/mL and 163 ng/mL and 162 ng/mL
same,"Concentration of X1 or GS-441524 in plasma, Mean","[3]; IV 5.0 mg/kg, 4.0 h",25 ng/mL
same,"Concentration of X1 or GS-441524 in plasma, individual rats","[3]; IV 5.0 mg/kg, 4.0 h, 5 mg/kg",23.6 ng/mL and 24.3 ng/mL and 27.8 ng/mL
same,"Concentration of X1 or GS-441524 in plasma, Mean","[3]; IV 5.0 mg/kg, 6.0 h",11 ng/mL
same,"Concentration of X1 or GS-441524 in plasma, individual rats","[3]; IV 5.0 mg/kg, 6.0 h, 5 mg/kg",BQL (2×) and 11.2 ng/ml
same,"Concentration of X1 or GS-441524 in plasma, individual rats","[3]; IV 5.0 mg/kg, 8.0 h",BQL
same,"Concentration of X1 or GS-441524 in plasma, individual rats","[3]; IV 5.0 mg/kg, 24.0 h",BQL
same,"Concentration of X1 or GS-441524 in plasma, Mean","[3]; PO 30.0 mg/kg, 5 min",251 ng/mL
same,"Concentration of X1 or GS-441524 in plasma, individual rats","[3]; PO 30.0 mg/kg, 5 min, 30 mg/kg",122 ng/mL and 279 ng/mL and 353 ng/mL
same,"Concentration of X1 or GS-441524 in plasma, Mean","[3]; PO 30.0 mg/kg, 0.25 h",1480 ng/mL
same,"Concentration of X1 or GS-441524 in plasma, individual rats","[3]; PO 30.0 mg/kg, 0.25 h, 30 mg/kg",1450 ng/mL and 1180 ng/mL and 1810 ng/mL
same,"Concentration of X1 or GS-441524 in plasma, Mean","[3]; PO 30.0 mg/kg, 0.5 h",1963 ng/mL
same,"Concentration of X1 or GS-441524 in plasma, individual rats","[3]; PO 30.0 mg/kg, 0.5 h, 30 mg/kg",1790 ng/mL and 1440 ng/mL and 2660 ng/mL
same,"Concentration of X1 or GS-441524 in plasma, Mean","[3]; PO 30.0 mg/kg, 1.0 h",1523 ng/mL
same,"Concentration of X1 or GS-441524 in plasma, individual rats","[3]; PO 30.0 mg/kg, 1.0 h, 30 mg/kg",1570 ng/mL and 1490 ng/mL and 1510 ng/mL
same,"Concentration of X1 or GS-441524 in plasma, Mean","[3]; PO 30.0 mg/kg, 2.0 h",1717 ng/mL
same,"Concentration of X1 or GS-441524 in plasma, individual rats","[3]; PO 30.0 mg/kg, 2.0 h, 30 mg/kg",1610 ng/mL and 1730 ng/mL and 1810 ng/mL
same,"Concentration of X1 or GS-441524 in plasma, Mean","[3]; PO 30.0 mg/kg, 4.0 h",860 ng/mL
same,"Concentration of X1 or GS-441524 in plasma, individual rats","[3]; PO 30.0 mg/kg, 4.0 h, 30 mg/kg",761 ng/mL and 995 ng/mL and 825 ng/mL
same,"Concentration of X1 or GS-441524 in plasma, Mean","[3]; PO 30.0 mg/kg, 6.0 h",179 ng/mL
same,"Concentration of X1 or GS-441524 in plasma, individual rats","[3]; PO 30.0 mg/kg, 6.0 h, 30 mg/kg",154 ng/mL and 165 ng/mL and 218 ng/mL
same,"Concentration of X1 or GS-441524 in plasma, Mean","[3]; PO 30.0 mg/kg, 8.0 h",76 ng/mL
same,"Concentration of X1 or GS-441524 in plasma, individual rats","[3]; PO 30.0 mg/kg, 8.0 h, 30 mg/kg",32.8 ng/mL and 90 ng/mL and 106 ng/mL
same,"Concentration of X1 or GS-441524 in plasma, Mean","[3]; PO 30.0 mg/kg, 24.0 h",13 ng/mL
same,"Concentration of X1 or GS-441524 in plasma, individual rats","[3]; PO 30.0 mg/kg, 24.0 h, 30 mg/kg",9.79 ng/mL and 23.3 ng/mL and 6.27 ng/mL
same,AUC0-t,[3]; [6],1689 ± 80 ng·h/mL
same,AUC0-∞,[3]; [6],1709 ± 74 ng·h/mL
same,CL,[3]; [6],48.8 ± 2.1 mL/min/kg
same,Cmax,[3]; [6],1997 ± 81 ng/mL
same,MRT0-∞,[3]; [6],0.82 ± 0.05 h
same,T1/2,[3]; [6],0.73 ± 0.07 h
same,Vss,[3]; [6],2.41 ± 0.05 L/kg
same,AUC0-t,[3]; [7],7664 ± 802 ng·h/mL
same,AUC0-∞,[3]; [7],7768 ± 827 ng·h/mL
same,Cmax,[3]; [7],2060 ± 520 ng/mL
same,MRT0-∞,[3]; [7],3.47 ± 0.80 h
same,T1/2,[3]; [7],4.59 ± 2.08 h
same,Tmax,[3]; [7],1.00 ± 0.87 h
same,F,"[3]; X1 (VV116) or GS-441524 (VV116-H), p.o. 30.0 mg/kg vs i.v. 5.0 mg/kg",75.6%
[2H]c1cc([C@]2(C#N)O[C@H](COC(=O)C(C)C)[C@@H](OC(=O)C(C)C)[C@H]2OC(=O)C(C)C)n2ncnc(N)c12 [X6],SI,RSV A2 [1],80
same,EC50,RSV A2 [1],1.2 ± 0.32 µM
same,CC50 at 48 h,[2]; [5],95.9 ± 9.27 µM
"NC(=O)c1ncn([C@@H]2O[C@H](CO)[C@@H](O)[C@H]2O)n1 [ribavirin, Ribavirin]",Decrease of infectious titers in lung,RSV A2 [4],~ 2.0 log10
same,Decrease of viral RNA copies in lung,RSV A2 [4],~ 1.5 log10
palivizumab: approved prophylactic treatment for prevention of serious RSV lower respiratory tract disease in high-risk children,Share of individuals in whom effective in preventing hospitalization,RSV,~ 50%
